Results as given in the NIST ThermoML archive (doi:10.1021/je700546r).
± gives the expanded uncertainty stated by the source.

Assay: molar heat capacity at constant pressure
Conditions: 100 kPa, Small (less than 1 g) adiabatic calorimetry

ON=C1CCCCC1 [cyclohexanone oxime]
Conditions	molar heat capacity at constant pressure [J/K/mol]
5 K, Crystal 3	0.3674 ± 0.023
10 K, Crystal 3	2.982 ± 0.058
15 K, Crystal 3	7.554 ± 0.12
20 K, Crystal 3	12.9 ± 0.14
25 K, Crystal 3	18.36 ± 0.16
30 K, Crystal 3	23.53 ± 0.18
35 K, Crystal 3	28.21 ± 0.2
40 K, Crystal 3	32.42 ± 0.23
45 K, Crystal 3	36.26 ± 0.25
50 K, Crystal 3	39.78 ± 0.27
60 K, Crystal 3	45.91 ± 0.29
70 K, Crystal 3	51.28 ± 0.33
80 K, Crystal 3	56.24 ± 0.35
90 K, Crystal 3	60.87 ± 0.4
100 K, Crystal 3	65.47 ± 0.42
110 K, Crystal 3	69.94 ± 0.44
120 K, Crystal 3	74.33 ± 0.46
130 K, Crystal 3	78.7 ± 0.48
140 K, Crystal 3	83.1 ± 0.5
150 K, Crystal 3	87.59 ± 0.52
160 K, Crystal 3	92.16 ± 0.55
170 K, Crystal 3	96.94 ± 0.57
180 K, Crystal 3	102.1 ± 0.6
190 K, Crystal 3	107.7 ± 0.6
200 K, Crystal 3	113.9 ± 0.7
210 K, Crystal 3	122.3 ± 0.7
220 K, Crystal 3	132.6 ± 0.7
230 K, Crystal 3	141.9 ± 0.8
240 K, Crystal 3	150.7 ± 0.8
250 K, Crystal 2	153.4 ± 0.8
260 K, Crystal 2	163.4 ± 0.9
270 K, Crystal 2	174.5 ± 0.9
280 K, Crystal 2	184.4 ± 1
290 K, Crystal 2	191.9 ± 1
298.15 K, Crystal 2	196.2 ± 1.1
300 K, Crystal 2	197.1 ± 1.1
310 K, Crystal 1	192.8 ± 1
320 K, Crystal 1	197.5 ± 1.1
330 K, Crystal 1	203 ± 1.1
340 K, Crystal 1	209 ± 1.1
350 K, Crystal 1	215.2 ± 1.1
360 K, Crystal 1	221.1 ± 1.2
362.2 K, Crystal 1	222.4 ± 1.2
362.2 K, Liquid	271.5 ± 1.4
365 K, Liquid	273.1 ± 1.4
370 K, Liquid	276 ± 1.4
